Test results from PubChem BioAssay (NCI).
“And” between values parts separate entries of the source, which are not always exact repeats. Equal values may be shown once.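 In this assay, cells in 96-well plates receive the compound at five concentrations for 48 hours. Endpoints are linearly interpolated between the surrounding concentrations. Abbreviation: GI50, concentration required for 50% inhibition of growth. TGI is the concentration that stops growth completely.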

Assays:
Assay in all cases: growth of human tumour cells (NCI), 48 h
UACC-62 melanoma = system: UACC-62 melanoma
SW-620 colon = system: SW-620 colon
NCI-H522 lung = system: NCI-H522 lung
T-47D breast = system: T-47D breast
OVCAR-5 ovarian = system: OVCAR-5 ovarian
U251 CNS = system: U251 CNS
786-0 renal = system: 786-0 renal
NCI-H23 lung = system: NCI-H23 lung
ACHN renal = system: ACHN renal
NCI/ADR-RES ovarian = system: NCI/ADR-RES ovarian

Compound: COc1cc2c(c(OC)n1)[C@]1(O)[C@H](O)[C@H](CN(C)C)[C@@H](c3ccccc3)[C@]1(c1ccc(C#N)cc1)O2
- GI50 (UACC-62 melanoma): 0.0359 µM and 0.0358 µM
- TGI (UACC-62 melanoma): 2.63 µM and 4.34 µM
- GI50 (SW-620 colon): 0.0124 µM and < 0.01 µM
- TGI (SW-620 colon): 3.37 µM and 10.4 µM
- GI50 (NCI-H522 lung): 0.0257 µM and 0.0212 µM
- TGI (NCI-H522 lung): 1.15 µM and 2.24 µM
- GI50 (T-47D breast): < 0.01 µM
- TGI (T-47D breast): 3.81 µM and 2.33 µM
- GI50 (OVCAR-5 ovarian): 0.0208 µM and 0.0174 µM
- TGI (OVCAR-5 ovarian): 0.866 µM and 1.43 µM
- GI50 (U251 CNS): 0.02 µM and < 0.0111 µM
- TGI (U251 CNS): 2.39 µM and 7.95 µM
- GI50 (786-0 renal): 0.0443 µM and 0.0313 µM
- TGI (786-0 renal): 7.37 µM and 4.06 µM
- GI50 (NCI-H23 lung): 0.0182 µM and 0.0111 µM
- TGI (NCI-H23 lung): 1.76 µM and 1.03 µM
- GI50 (ACHN renal): < 0.0116 µM and 0.0117 µM
- TGI (ACHN renal): 0.148 µM and 0.558 µM
- GI50 (NCI/ADR-RES ovarian): 0.0546 µM and 0.071 µM
- TGI (NCI/ADR-RES ovarian): 3.89 µM and 2.93 µM

Compound: COc1ccc2c(c1)C(C)Cc1c(ncnc1-n1c(C)nc3ccccc31)N2C (stereo not given)
- GI50 (UACC-62 melanoma): 4.83 µM
- TGI (UACC-62 melanoma): 22.3 µM
- GI50 (SW-620 colon): 6.24 µM
- TGI (SW-620 colon): 28 µM
- GI50 (NCI-H522 lung): 1.96 µM
- TGI (NCI-H522 lung): 5.38 µM
- GI50 (T-47D breast): 6.5 µM
- TGI (T-47D breast): 49.9 µM
- GI50 (OVCAR-5 ovarian): 13 µM
- TGI (OVCAR-5 ovarian): 39.8 µM
- GI50 (U251 CNS): 4.51 µM
- TGI (U251 CNS): 17.7 µM
- GI50 (786-0 renal): 5.83 µM
- TGI (786-0 renal): 29.2 µM
- GI50 (NCI-H23 lung): 3.08 µM
- TGI (NCI-H23 lung): 18.5 µM
- GI50 (ACHN renal): 6.56 µM
- TGI (ACHN renal): 23.1 µM
- GI50 (NCI/ADR-RES ovarian): 2 µM
- TGI (NCI/ADR-RES ovarian): 19.3 µM

Compound: Cn1cc(C2=C(c3cn(CCCCCN)c4ccccc34)C(=O)NC2=O)c2ccccc21
- GI50 (UACC-62 melanoma): 10.3 µM
- TGI (UACC-62 melanoma): > 25 µM
- GI50 (SW-620 colon): 9.64 µM
- TGI (SW-620 colon): > 25 µM
- GI50 (NCI-H522 lung): 15.5 µM
- TGI (NCI-H522 lung): > 25 µM
- GI50 (T-47D breast): 6.23 µM
- TGI (T-47D breast): 21.6 µM
- GI50 (OVCAR-5 ovarian): > 25 µM
- TGI (OVCAR-5 ovarian): > 25 µM
- GI50 (U251 CNS): 10.8 µM
- TGI (U251 CNS): > 25 µM
- GI50 (786-0 renal): 9.83 µM
- TGI (786-0 renal): > 25 µM
- GI50 (NCI-H23 lung): 9.98 µM
- TGI (NCI-H23 lung): > 25 µM
- GI50 (ACHN renal): 10.9 µM
- TGI (ACHN renal): > 25 µM
- GI50 (NCI/ADR-RES ovarian): 12.8 µM
- TGI (NCI/ADR-RES ovarian): > 25 µM
